{"source": "patent US20250381149A1", "about": "“CATIONIC AMPHIPHILIC COMPOUND-BASED NANOPARTICLE COMPOSITIONS” (Universiteit Gent, priority 2022, published 2025)", "note": "Structures can show the parent of a compound that is named as a salt.", "data": [{"experiment": "Self-assembly of CAD with DOPE (50:50) into vesicles, ethanol dilution or lipid film hydration", "type": "physicochemical", "conditions": "CAD:DOPE 50:50", "description": "Preparation of CAD-DOPE nanoparticles. […] The lipids DOTAP (1,2-dioleoyl-3-trimethylammonium-propane) and DOPE (1,2-dioleoyl-sn-glycero-3-phosphoethanolamine) were purchased from Avanti Polar Lipids (Alabaster, USA).\nFor the ethanol dilution (ED) method, CADs (10 mg/ml) and DOPE (25 mg/ml) were separately dissolved in absolute ethanol. […] For the lipid film hydration method CAD (10 mg/ml) and DOPE (25 mg/ml) were dissolved in chloroform (50:50 mol ratio) and transferred to a brown glass vial, followed by chloroform evaporation under nitrogen flow. […] The classically used cationic DOTAP-DOPE liposomes (50:50 mol ratio) were likewise prepared via lipid film hydration, as previously reported in literature and diluted in HEPES buffer (pH 7.4, 20 mM) to obtain a final lipid concentration of 3.9 mM. Hydrodynamic diameter, polydispersity index (PDI) and zeta-potential of all formulations were determined via dynamic light scattering (DLS) (Zetasizer Nano, Malvern Instruments, Worcestershire, United Kingdom).", "values": [{"smiles": "CN(C)CCC=C1c2ccccc2CCc2ccccc21", "note": "[Amitriptyline hydrochloride]", "vesicle formation with DOPE": "successful vesicle formation"}, {"smiles": "CN(C)CCCN1c2ccccc2CCc2ccccc21", "note": "[Imipramine hydrochloride]", "vesicle formation with DOPE": "successful vesicle formation"}, {"smiles": "CNCCCN1c2ccccc2CCc2ccccc21", "note": "[Desipramine hydrochloride]", "vesicle formation with DOPE": "successful vesicle formation"}, {"smiles": "NC1=NCC2c3ccccc3Cc3ccccc3N12", "note": "(stereo not drawn) [Epinastine]", "vesicle formation with DOPE": "did not self-assemble with DOPE"}, {"smiles": "CN1CCC(=C2c3ccccc3CC(=O)c3sccc32)CC1", "note": "[Ketotifen]", "vesicle formation with DOPE": "did not self-assemble with DOPE"}, {"smiles": "Clc1ccc2c(c1)CCc1cccnc1C2=C1CCNCC1", "note": "[Desloratadine]", "vesicle formation with DOPE": "successful vesicle formation"}]}]}
